Data: patent US8193191B2, “Urotensin II receptor antagonists” (Janssen Pharmaceutica N.V., priority 2006, dated 2012)
Where “and” joins values, the source holds several entries; their conditions need not be identical. Equal values may be shown once. Read-outs that look alike come from different tables or passages of the source.

Biological target: T1, rat GPR14 (U-II receptor) (Rattus norvegicus, UniProt P49684)
T1 construct: expressed in transfected cells
T1 sequence (P49684 1-386): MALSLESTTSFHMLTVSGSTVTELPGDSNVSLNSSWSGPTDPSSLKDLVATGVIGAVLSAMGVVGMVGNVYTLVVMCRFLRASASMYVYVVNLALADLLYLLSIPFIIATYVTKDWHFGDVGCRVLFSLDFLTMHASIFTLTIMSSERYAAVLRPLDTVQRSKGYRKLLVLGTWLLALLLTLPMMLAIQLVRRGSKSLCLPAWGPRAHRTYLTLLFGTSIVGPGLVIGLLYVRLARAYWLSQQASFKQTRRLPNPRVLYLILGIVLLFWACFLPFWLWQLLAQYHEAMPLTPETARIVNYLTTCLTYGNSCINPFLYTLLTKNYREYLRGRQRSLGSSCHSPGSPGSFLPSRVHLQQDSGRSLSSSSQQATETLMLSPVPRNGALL
Test: Rat UII Calcium Mobilization FLIPR Assay
Format: cell-based
Conditions: for inhibition at 10 µM / inhibition at 50 µM: CHO, 5 min, agonist-induced Ca2+ mobilization (FLIPR), CHO cells with rat UII receptor; for inhibition at 10 µM: 10 μM compound, read-out: % I @ 10; for inhibition at 50 µM: 50 μM compound, read-out: % I @ 50
Excerpt: To derive these cells, the complete coding sequence of rat U-II (Genbank Accession No. U32673) was amplified by nested PCR from rat heart marathon-Ready cDNA. […] The PCR products were cloned into pcDNA3 (Invitrogen) digested with EcoR I and Xba I. Clones containing rat U-II receptor were verified by complete sequencing of the U-II receptor insert to ensure a lack of PCR-introduced errors. The constructed vector was transfected into CHO cells by using lipofectamine (GIBCO BRL). CHO cells with high expression of rat U-II receptor were selected and established as stable cell lines by using G418. CHO cells were seeded at 25,000 cells per well into 96-well, black-wall, clear-bottom microtiter plates 24 h before assay. Cells in culture media (DMEM/F12 containing 15 mM HEPES, L-glutamine, pyridoxine hydrochloride; 10% fetal bovine serum; 1 mg/mL G418 sulfate; antibiotic-antimycotic; pH 7.4) were loaded with proprietary dye, from the FLIPR Calcium Assay Kit (Molecular Devices), prepared in assay buffer (Hanks Balanced Salts Solution, 20 mM HEPES, 0.1% BSA, 2.5 mM probenecid, pH 7.4), and incubated for 1 h at 37° C. Calcium mobilization determinations were performed at room temperature (23° C.).

[1] = average value for the compound tested, read-out: Rat UII FLIPR Average IC50
[2] = Inhibition of Acetyl-cyclic[Cys-Phe-Trp-Lys-(2-Nal)-Cys]-NH2 induced Ca2+ mobilization (FLIPR) in CHO cells transfected with rat UII receptor, read-out: IC50

IC50 [1] [µM]	inhibition at 10 µM [%]	inhibition at 50 µM [%]	IC50 [2]	SMILES
2.8	–	–	–	COc1ccc(CN2C(=O)c3cccc(N4CCN(Cc5ccccn5)CC4)c3C2=O)cc1OC [Cpd 84, 2-(3,4-dimethoxy-benzyl)-4-(4-pyridin-2-ylmethyl-piperazin-1-yl)-isoindole-1,3-dione]
–	96	100	2.1 µM	COc1ccc(CN2C(=O)c3cccc(N4CCN(Cc5ccc(F)cc5F)CC4)c3C2=O)cc1OC [Cpd 24, 4-[4-(2,4-difluoro-benzyl)-piperazin-1-yl]-2-(3,4-dimethoxy-benzyl)-isoindole-1,3-dione]
–	22	78	21 µM	COc1ccc(CN2C(=O)c3cccc(OCCN(C)Cc4ccccc4)c3C2=O)cc1OC [Cpd 53, 4-[2-(benzyl-methyl-amino)-ethoxy]-2-(3,4-dimethoxy-benzyl)-isoindole-1,3-dione]
–	47	87	9 µM	COc1ccc(CN2C(=O)c3cccc(N4CCN(Cc5ccc(C)cc5)CC4)c3C2=O)cc1OC [Cpd 40, 2-(3,4-dimethoxy-benzyl)-4-[4-(4-methyl-benzyl)-piperazin-1-yl]-isoindole-1,3-dione]
–	64	94	5.9 µM	COc1cc(CN2C(=O)c3cccc(N4CCN(Cc5ccccc5)CC4)c3C2=O)cc(OC)c1OC [Cpd 34, 4-(4-benzyl-piperazin-1-yl)-2-(3,4,5-trimethoxy-benzyl)-isoindole-1,3-dione]
–	100	106	0.21 µM	COc1ccc(CN2C(=O)c3c(Cl)ccc(N4CCN([C@H](C)c5ccccc5)CC4)c3C2=O)cc1OC [Cpd 10, 4-chloro-2-(3,4-dimethoxy-benzyl)-7-[4-(1R)-(1-phenyl-ethyl)-piperazin-1-yl]-isoindole-1,3-dione]
–	91	97	0.86 µM and 1.1 µM	COc1ccc(CN2C(=O)c3cccc(N4CCN(Cc5c(F)cccc5F)CC4)c3C2=O)cc1OC [Cpd 16, 4-[4-(2,6-difluoro-benzyl)-piperazin-1-yl]-2-(3,4-dimethoxy-benzyl)-isoindole-1,3-dione]
–	41	78	16 µM	COc1ccc(CN2C(=O)c3cccc(NCCNCc4ccccc4)c3C2=O)cc1OC [Cpd 48, 4-(2-benzylamino-ethylamino)-2-(3,4-dimethoxy-benzyl)-isoindole-1,3-dione]
–	19	58	30 µM	COc1ccc(CN2C(=O)c3cccc(N4CCN(Cc5ccc(Cl)cc5)CC4)c3C2=O)cc1OC [Cpd 57, 4-[4-(4-chloro-benzyl)-piperazin-1-yl]-2-(3,4-dimethoxy-benzyl)-isoindole-1,3-dione]
0.31	–	–	–	COc1ccc(C(CCCNC(=O)Nc2cccs2)N2C(=O)c3cccc(N4CCN([C@H](C)c5ccccc5)CC4)c3C2=O)cc1OC (stereo partly drawn) [Cpd 120, 1-(4-(3,4-dimethoxy-phenyl)-4-{1,3-dioxo-4-[4-(1R)-(1-phenyl-ethyl)-piperazin-1-yl]-1,3-dihydro-isoindol-2-yl}-butyl)-3-thiophen-2-yl-urea]
–	25	78	15 µM	O=C1c2cccc(N3CCN(Cc4ccccc4)CC3)c2C(=O)N1CCCn1ccnc1 [Cpd 47, 4-(4-benzyl-piperazin-1-yl)-2-(3-imidazol-1-yl-propyl)-isoindole-1,3-dione]
2.6	–	–	–	COc1ccc(C(CCCNS(=O)(=O)c2cc(Cl)sc2Cl)N2C(=O)c3cccc(N4CCN([C@H](C)c5ccccc5)CC4)c3C2=O)cc1OC (stereo partly drawn) [Cpd 113, 2,5-dichloro-thiophene-3-sulfonic acid (4-(3,4-dimethoxy-phenyl)-4-{1,3-dioxo-4-[4-(1R)-(1-phenyl-ethyl)-piperazin-1-yl]-1,3-dihydro-isoindol-2-yl}-butyl)-amide]
–	8	52	42 µM	COc1cc(CN2C(=O)c3cccc(N4CCN(CC(C)C)CC4)c3C2=O)cc(OC)c1OC [Cpd 60, 4-(4-isobutyl-piperazin-1-yl)-2-(3,4,5-trimethoxy-benzyl)-isoindole-1,3-dione]
–	43	65	18 µM	COc1ccc(CN2C(=O)c3cccc(N4C[C@@H](C)N(C(C)c5ccccc5)[C@@H](C)C4)c3C2=O)cc1OC (stereo partly drawn) [Cpd 51, (3R,5S)-2-(3,4-dimethoxy-benzyl)-4-[3,5-dimethyl-4-(1-phenyl-ethyl)-piperazin-1-yl]-isoindole-1,3-dione]
–	80	99	4.4 µM	COc1ccc([C@H](CC(=O)O)N2C(=O)c3cccc(N4CCN([C@H](C)c5ccccc5)CC4)c3C2=O)cc1OC [Cpd 30, (S)-3-(3,4-dimethoxy-phenyl)-3-{1,3-dioxo-4-[4-(1R)-(1-phenyl-ethyl)-piperazin-1-yl]-1,3-dihydro-isoindol-2-yl}-propionic acid]
–	78	100	3.8 µM	COc1ccc(CN2C(=O)c3cccc(N4CCN(C(c5ccccc5)C5CC5)CC4)c3C2=O)cc1OC (stereo not shown) [Cpd 27, 4-[4-(cyclopropyl-phenyl-methyl)-piperazin-1-yl]-2-(3,4-dimethoxy-benzyl)-isoindole-1,3-dione]
–	77	95	4.4 µM	COc1ccc(CN2C(=O)c3cccc(N4CCN(Cc5cc(F)ccc5F)CC4)c3C2=O)cc1OC [Cpd 29, 4-[4-(2,5-difluoro-benzyl)-piperazin-1-yl]-2-(3,4-dimethoxy-benzyl)-isoindole-1,3-dione]
–	60	97	5 µM	COc1ccc(CN2C(=O)c3cccc(N4CCN(Cc5ccccc5C)CC4)c3C2=O)cc1OC [Cpd 33, 2-(3,4-dimethoxy-benzyl)-4-[4-(2-methyl-benzyl)-piperazin-1-yl]-isoindole-1,3-dione]
–	58	61	16 µM	COc1ccc(C(c2ccccc2)N2C(=O)c3cccc(N4CCN([C@H](C)c5ccccc5)CC4)c3C2=O)cc1OC (stereo partly drawn) [Cpd 49, 2-[(3,4-dimethoxy-phenyl)-phenyl-methyl]-4-[4-(1R)-(1-phenyl-ethyl)-piperazin-1-yl]-isoindole-1,3-dione]
–	100	101	0.34 µM	COc1cc2c(cc1OC)C(N1C(=O)c3cccc(N4CCN(Cc5ccccc5)CC4)c3C1=O)CC2 (stereo not shown) [Cpd 11, 4-(4-benzyl-piperazin-1-yl)-2-(5,6-dimethoxy-indan-1-yl)-isoindole-1,3-dione]
2.2	–	–	–	COc1ccc([C@@H](CCCNS(=O)(=O)c2sc3ccc(F)cc3c2C)N2C(=O)c3cccc(N4CCN([C@H](C)c5ccccc5)CC4)c3C2=O)cc1OC [Cpd 137, (R)-5-fluoro-3-methyl-benzo[b]thiophene-2-sulfonic acid (4-(3,4-dimethoxy-phenyl)-4-{1,3-dioxo-4-[4-(1R)-(1-phenyl-ethyl)-piperazin-1-yl]-1,3-dihydro-isoindol-2-yl}-butyl)-amide]
–	12	75	24 µM	Cc1c(CN2C(=O)c3cccc(N4CCN(Cc5ccccc5)CC4)c3C2=O)cnn1C [Cpd 55, 4-(4-benzyl-piperazin-1-yl)-2-(1,5-dimethyl-1H-pyrazol-4-ylmethyl)-isoindole-1,3-dione]

SMILES	IC50 [1] [µM]	inhibition at 10 µM [%]	inhibition at 50 µM [%]	IC50 [2]
COc1ccc(CCN2C(=O)c3cccc(N4CC5CCC(C4)N5Cc4ccccc4)c3C2=O)cc1OC [Cpd 25, 4-(8-benzyl-3,8-diaza-bicyclo[3.2.1]oct-3-yl)-2-[2-(3,4-dimethoxy-phenyl)-ethyl]-isoindole-1,3-dione]	–	90	100	2.8 µM
COc1ccc(N2C(=O)c3cccc(N4CC5CCC(C4)N5Cc4ccccc4)c3C2=O)cc1OC [Cpd 61, 4-(8-benzyl-3,8-diaza-bicyclo[3.2.1]oct-3-yl)-2-(3,4-dimethoxy-phenyl)-isoindole-1,3-dione]	–	31	49	48 µM
O=C1c2cccc(N3CC4CCC(C3)N4Cc3ccccc3)c2C(=O)N1Cc1ccccn1 [Cpd 59, 4-(8-benzyl-3,8-diaza-bicyclo[3.2.1]oct-3-yl)-2-pyridin-2-ylmethyl-isoindole-1,3-dione]	–	11	56	34 µM
